Results reported in US20220125051A1, “PRE-HARVEST DESICCATION METHOD” (SYNGENTA CROP PROTECTION AG, priority 2019, published 2022).
Like-named read-outs stand apart in the source and are kept apart here.

Assays:
Test in all cases: Post-emergence efficacy, Method A
Type in all cases: in vivo
[1] = test system: Echinochloa crus-galli (ECHCG); conditions: Echinochloa crus-galli, post-emergence, 312 h, evaluated after 13 days
In short: (§1)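 Plants raised 14 days from seed in standard soil in a glasshouse (24/16 °C day/night, 14 h light, 65% humidity) were sprayed with compound dissolved in acetone plus IF50 solvent/emulsifier (50 g/l solution), diluted with 0.25% or 1% Empicol ESC70 + 1% ammonium sulphate. Damage was scored visually after 13 days (0 = none, 100 = total).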

Lolium perenne (LOLPE) = conditions: Lolium perenne, post-emergence, 312 h, evaluated after 13 days
In short: as §1

[2] = test system: Chenopodium album (CHEAL); conditions: Chenopodium album, post-emergence, 312 h, evaluated after 13 days
In short: as §1

[3] = test system: Euphorbia heterophylla (EPHHL); conditions: Euphorbia heterophylla, post-emergence, 312 h, evaluated after 13 days
In short: as §1

Eleusine indica (ELEIN) = conditions: Eleusine indica, post-emergence, 312 h, evaluated after 13 days
In short: as §1

[4] = test system: Digitaria sanguinalis (DIGSA); conditions: Digitaria sanguinalis, post-emergence, 312 h, evaluated after 13 days
In short: as §1

[5] = test system: Ipomoea hederacea (IPOHE); conditions: Ipomoea hederacea, post-emergence, 312 h, evaluated after 13 days
In short: as §1

Setaria faberi (SETFA) = conditions: Setaria faberi, post-emergence, 312 h, evaluated after 13 days
In short: as §1

[6] = test system: Amaranthus palmeri (AMAPA); conditions: Amaranthus palmeri, post-emergence, 312 h, evaluated after 13 days
In short: as §1

[7] = Application Rate 500 g/Ha, Method A, read-out: Control of weed species after post-emergence application, ECHCG (100=total damage to plant; 0=no damage to plant)
[8] = Application Rate 500 g/Ha, Method A, read-out: Control of weed species after post-emergence application, LOLPE (100=total damage to plant; 0=no damage to plant)
[9] = Application Rate 500 g/Ha, Method A, read-out: Control of weed species after post-emergence application, CHEAL (100=total damage to plant; 0=no damage to plant)
[10] = Application Rate 500 g/Ha, Method A, read-out: Control of weed species after post-emergence application, EPHHL (100=total damage to plant; 0=no damage to plant)
[11] = Application Rate 500 g/Ha, Method A, read-out: Control of weed species after post-emergence application, ELEIN (100=total damage to plant; 0=no damage to plant)
[12] = Application Rate 500 g/Ha, Method A, read-out: Control of weed species after post-emergence application, DIGSA (100=total damage to plant; 0=no damage to plant)
[13] = Application Rate 500 g/Ha, Method A, read-out: Control of weed species after post-emergence application, IPOHE (100=total damage to plant; 0=no damage to plant)
[14] = Application Rate 500 g/Ha, Method A, read-out: Control of weed species after post-emergence application, SETFA (100=total damage to plant; 0=no damage to plant)
[15] = Application Rate 500 g/Ha, Method A, read-out: Control of weed species after post-emergence application, AMAPA (100=total damage to plant; 0=no damage to plant)
[16] = Application rate 500 g/Ha, 100=total damage to plant, 0=no damage to plant, read-out: Control of weed species after post-emergence application, ECHCG
[17] = Application rate 500 g/Ha, 100=total damage to plant, 0=no damage to plant, read-out: Control of weed species after post-emergence application, LOLPE
[18] = Application rate 500 g/Ha, 100=total damage to plant, 0=no damage to plant, read-out: Control of weed species after post-emergence application, CHEAL
[19] = Application rate 500 g/Ha, 100=total damage to plant, 0=no damage to plant, read-out: Control of weed species after post-emergence application, EPHHL
[20] = Application rate 500 g/Ha, 100=total damage to plant, 0=no damage to plant, read-out: Control of weed species after post-emergence application, ELEIN
[21] = Application rate 500 g/Ha, 100=total damage to plant, 0=no damage to plant, read-out: Control of weed species after post-emergence application, DIGSA
[22] = Application rate 500 g/Ha, 100=total damage to plant, 0=no damage to plant, read-out: Control of weed species after post-emergence application, IPOHE
[23] = Application rate 500 g/Ha, 100=total damage to plant, 0=no damage to plant, read-out: Control of weed species after post-emergence application, SETFA
[24] = Application rate 500 g/Ha, 100=total damage to plant, 0=no damage to plant, read-out: Control of weed species after post-emergence application, AMAPA

SMILES	pest or weed control at 500 g/ha [1, 7]	pest or weed control at 500 g/ha (Lolium perenne (LOLPE); [8])	pest or weed control at 500 g/ha [2, 9]	pest or weed control at 500 g/ha [3, 10]	pest or weed control at 500 g/ha (Eleusine indica (ELEIN); [11])	pest or weed control at 500 g/ha [4, 12]	pest or weed control at 500 g/ha [5, 13]	pest or weed control at 500 g/ha (Setaria faberi (SETFA); [14])	pest or weed control at 500 g/ha [6, 15]	pest or weed control at 500 g/ha [1, 16]	pest or weed control at 500 g/ha (Lolium perenne (LOLPE); [17])	pest or weed control at 500 g/ha [2, 18]	pest or weed control at 500 g/ha [3, 19]	pest or weed control at 500 g/ha (Eleusine indica (ELEIN); [20])	pest or weed control at 500 g/ha [4, 21]	pest or weed control at 500 g/ha [5, 22]	pest or weed control at 500 g/ha (Setaria faberi (SETFA); [23])	pest or weed control at 500 g/ha [6, 24]
Nc1cc(-c2cc[n+](CCC(=O)O)nc2)nc(N)n1 [Compound A188]	50%	20%	50%	30%	20%	40%	20%	30%	90%	–	–	–	–	–	–	–	–	–
COC(=O)CC[n+]1ccc(-c2cccnn2)cn1 [Compound A139]	–	–	–	–	–	–	–	–	–	100%	90%	100%	90%	100%	100%	10%	100%	80%
COc1cncc(-c2cc[n+](CCCS(=O)(=O)[O-])nc2)n1 [Compound A90]	–	–	–	–	–	–	–	–	–	20%	20%	20%	60%	20%	30%	30%	30%	40%
O=c1[nH]c(-c2cc[n+](CCCS(=O)(=O)[O-])nc2)ncc1Cl [Compound A173]	30%	10%	50%	40%	10%	20%	20%	30%	30%	–	–	–	–	–	–	–	–	–
Cc1cc(Cl)cnc1-c1cc[n+](CCS(=O)(=O)[O-])nc1 [Compound A103]	–	–	–	–	–	–	–	–	–	30%	10%	50%	50%	30%	20%	30%	10%	0%
CN(C)c1cnc(-c2cc[n+](CCC(=O)[O-])nc2)nc1 [Compound A42]	–	–	–	–	–	–	–	–	–	30%	0%	0%	30%	20%	50%	20%	50%	50%
Nc1nccc(-c2cc[n+](CCS(=O)(=O)[O-])nc2)n1 [Compound A158]	20%	30%	80%	80%	50%	30%	30%	40%	100%	–	–	–	–	–	–	–	–	–
